# According to US20060252683A1, “Preparation of a peptide compound (SYRAPRO-2000) and its use for the activation of protein phosphatase-2A1 enzyme” (priority 2005, published 2006):
# Legend:
# [1] = Cell viability (tryphan blue) and cell death of SK-N-SH cells; assay type: cell-based, human; conditions: human, SK-N-SH cells (neuroblastoma cell line), 2000 nM, 4 days of incubation, read-out: treated cells non viable (tryphan blue staining)
# Description: (§1) Panel A, SK—N—SH cells (a human neuroblastoma cell line) were grown in DMEM and 5% (v/v) fetal bovine serum. Cells (10^6 cells per ml) were treated (+) or not (−) with 2000 nM SYRAPRO-2000. Cell viability was then determined by counting the cells following tryphan blue staining after 4, 8 and 12 days of incubation. Panel B, Following treatment with or without SYRAPRO-2000 for 8 days, SK—N—SH cells grown on slides were analyzed by phase contrast microscopy (Row A), by fluorescence microscopy following staining with FITC labeled annexin V (apoptotic cell death) (Row B) or propidium iodide (oncolytic cell death) on a on a Zeiss Axioplan 2 imaging universal microscope (Thornwood, N.Y.). Phase contrast images and Green (FITC labeled annexin V) and red (propidium iodide) fluorescence images were obtained. […]
# (§2) SK—N—SH cells are grown in DMEM supplemented with 5% (v/v) fetal bovine serum and antibiotics and treated or not with 2 μM SYRAPRO-2000 for 8 days. Following treatment with SYRAPRO-2000, cell viability are then determined by counting the cells following tryphan blue staining. […] Following treatment with SYRAPRO-2000, cells grown on slides by were analyzed by phase contrast microscopy and fluorescence microscopy following staining with FITC labeled annexin V (an indicator of apoptotic cell death) or propidium iodide (an indicator of oncolytic or necrotic cell death). […]
# SK—N—SH cells = assay: as above; assay type: cell-based, human; conditions: 2000 nM, 8 days
# Description: as §1, §2
compound,measurement,setting,value
CC[C@H](C)[C@H](NC(=O)[C@H](CCCNC(=N)N)NC(=O)[C@H](CO)NC(=O)[C@H](Cc1c[nH]cn1)NC(=O)[C@H](CCCNC(=N)N)NC(=O)[C@H](CS)NC(=O)CNC(=O)[C@@H](NC(=O)[C@H](CCCNC(=N)N)NC(=O)[C@H](Cc1ccccc1)NC(=O)[C@@H](N)Cc1c[nH]cn1)[C@@H](C)CC)C(=O)NCC(=O)N[C@H](C(=O)N[C@H](C(=O)N[C@@H](CCCNC(=N)N)C(=O)N[C@@H](CCC(N)=O)C(=O)N[C@@H](CCCNC(=N)N)C(=O)N[C@@H](CCCNC(=N)N)C(=O)N[C@@H](C)C(=O)N[C@@H](CCCNC(=N)N)C(=O)N[C@@H](CC(N)=O)C(=O)NCC(=O)N[C@@H](C)C(=O)N[C@@H](CO)C(=O)N[C@@H](CCCNC(=N)N)C(=O)N[C@@H](CO)C(=O)O)[C@@H](C)O)C(C)C [SYRAPRO-2000],"cytotoxicity at 4 days, 2 µM",[1],~50%
same,mode of cell death (FITC-annexin V and propidium iodide staining),SK—N—SH cells,apoptosis and oncolysis
